{
  "source": "patent US8945641B2",
  "about": "“Use of gum arabic for improving the growth and survival of bifidobacteria” (Compagnie Gervais Danone, priority 2006, dated 2015)",
  "system": "Bifidobacterium animalis ssp lactis I-2494",
  "assay": "Growth and survival of bifidobacteria in a drinking yogurt with yogurt ferments, acacia gum and/or cysteine, storage at 10° C.",
  "type": "cell-based",
  "conditions": "acacia gum 0.8%",
  "source_text": "A drinking yogurt (2.8% of proteins) is manufactured by reconstitution of milk powder, and supplemented with 0.8% (by weight) of acacia gum, as described in Example 1 above. This type of product is chosen for the trials since it is the one that poses the biggest problems in terms of maintaining the population of bifidobacteria during storage. The reconstituted milk, supplemented with acacia gum, is heat treated as described in Example 1 above, and homogenized (150-200 bar).\nAfter cooling to 38-40° C., Streptococcus thermophilus and Lactobacillus delbrueckii ssp. Bulgaricus are added in an amount of 5×10^6 CFU/ml of Streptococcus thermophilus, 5×10^6 CFU/ml of Lactobacillus bulgaricus. Bifidobacterium animalis ssp lactis I-2494 is added in the form of a ferment for direct inoculation, such as those described in application FR 0606421 supplemented with cysteine or not. The supplemented ferment used corresponds to the addition of 1.92×10^7 CFU/ml of Bifidobacterium animalis and 6.9 mg/l of cysteine.\nAfter inoculation, the fermentation is carried out at 38° C., and monitored using the CINAC® system (YSEBAERT) until the curd settling pH is obtained (4.3<pH<4.4).\nThe curd settling is obtained by drawing off and cooling between 10-20° C., and then stirring.\nThe product is then packaged in pots and then placed in a cold tunnel (4° C.).\nThe populations are then counted at 2 h of storage at 15° C., and then 2, 8 14, 28 and 37 days of storage at 10° C.\nThe same experiment was repeated with a product containing 2.7% of proteins, containing 0.8% of acacia gum, and inoculated with a ferment supplemented with cysteine, corresponding to the addition of 1.90×10^7 CFU/ml of bifidobacteria animalis and 7 mg/l of cysteine.",
  "data": [
    {"smiles": "N[C@@H](CS)C(=O)O", "note": "[Control Cysteine, cysteine]", "values": [
      {"measurement": "Number of Bifidus at 2 h of storage", "setting": "2 h of storage at 15° C., drinking yogurt 2.8% proteins, cysteine 6.9 mg/l where present", "result": "2.1E+8", "unit": "CFU/g"},
      {"measurement": "Number of Bifidus at D +2", "setting": "D+2, repeat, product 2.7% proteins, cysteine 7 mg/l where present", "result": "1.05E+08", "unit": "CFU/g"},
      {"measurement": "Number of Bifidus at D +2", "setting": "D+2 at 10° C., 2.8% proteins, cysteine 6.9 mg/l where present", "result": "1.2E+8", "unit": "CFU/g"},
      {"measurement": "Number of Bifidus at D +8", "setting": "D+8, repeat, 2.7% proteins, cysteine 7 mg/l where present", "result": "9.00E+07", "unit": "CFU/g"},
      {"measurement": "Number of Bifidus at D +8", "setting": "D+8 at 10° C., 2.8% proteins, cysteine 6.9 mg/l where present", "result": "1.8E+8", "unit": "CFU/g"},
      {"measurement": "Number of Bifidus at D +14", "setting": "D+14, repeat, 2.7% proteins, cysteine 7 mg/l where present", "result": "7.00E+07", "unit": "CFU/g"},
      {"measurement": "Number of Bifidus at D +14", "setting": "D+14 at 10° C., 2.8% proteins, cysteine 6.9 mg/l where present", "result": "1.4E+8", "unit": "CFU/g"},
      {"measurement": "Number of Bifidus at D +21", "setting": "D+21, repeat, 2.7% proteins, cysteine 7 mg/l where present", "result": "4.00E+07", "unit": "CFU/g"},
      {"measurement": "Number of Bifidus at D +28", "setting": "D+28, repeat, 2.7% proteins, cysteine 7 mg/l where present", "result": "2.00E+07", "unit": "CFU/g"},
      {"measurement": "Number of Bifidus at D +28", "setting": "D+28 at 10° C., 2.8% proteins, cysteine 6.9 mg/l where present", "result": "8.8E+7", "unit": "CFU/g"},
      {"measurement": "Number of Bifidus at D +35", "setting": "D+35, repeat, 2.7% proteins, cysteine 7 mg/l where present", "result": "6.00E+06", "unit": "CFU/g"},
      {"measurement": "Number of Bifidus at D +37", "setting": "D+37 at 10° C., 2.8% proteins, cysteine 6.9 mg/l where present", "result": "7.8E+7", "unit": "CFU/g"},
      {"measurement": "Number of Bifidus at D +52", "setting": "D+52, repeat, 2.7% proteins, cysteine 7 mg/l where present", "result": "3.00E+06", "unit": "CFU/g"}
    ]}
  ]
}
